Measured values taken from US10906977B2, “Enhancing the therapeutic activity of immune checkpoint inhibitor” (Maine Medical Center Research Institute, priority 2016, dated 2021).

Legend:
fibroblasts = assay: Growth factor-induced fibroblast migration on denatured collagen; format: cell-based, human; conditions: FGF-2 20 ng/ml; FIG. 22B, 22E, 24D
Experimental: Transwell membranes (8.0 um pore size) were coated with 5 μg/ml of native or denatured collagen for 12 hrs at […] as described previously (13). Migration buffer containing RPMI 1640, 1 mM MgCl2, 0.2 mM MnCl2 and 0.5% BSA in the presence or absence of 5× concentrated serum free SKOV-3 CM or 20 ng/ml FGF-2 was placed in the lower chambers. SKOV-3 or fibroblasts (1×105) were resuspended in migration buffer containing RPMI 1640, 1 mM MgCl2, 0.2 mM MnCl2 and 0.5% BSA in the presence or absence of antibodies directed to the HU177 epitope, or α10β1, (10 μg/ml) or 100 uM of the MEK inhibitor ([…]). Cells were added to the top chamber and allowed to migrate from 2 to 4 hrs. Cells remaining on the top of the membranes were removed and cells that had migrated to the underside of the membrane were quantified by direct cell counts of crystal violet stained cells or by measuring the optical density of eluted cell-associated crystal violet dye as previously described (15). Assays were completed at least 3×.

[1] = tested on: human retinal microvascular endothelial cells (HRMVEC); assay: Cell adhesion to immobilized collagen RGD peptides; format: cell-based; conditions: peptide immobilized 100 μg/ml
Experimental: (§1) RGD peptides (P-1, P-2, P-3, P-4, P-5, and P-C) were immobilized (100 μg/ml) to wells. HUVEC, HMVEC, HRMVEC, and HDF cells were suspended in adhesion buffer (RPMI containing 1 mM MgCl2, 0.2 mM MnCl2 and 0.5% BSA) and 1×10^5 cells were seeded into the wells in the presence or absence of P4C10, LM609, P1F6 or control antibodies (100 μg/ml). Cells were allowed to attach for 25 min at 37° C. Media containing non-attached cells was aspirated and attached cells were washed with PBS and stained with crystal violet. Cell adhesion was quantified by measuring the optical density of eluted dye. Adhesion assays were completed at least three times with triplicate wells.

[2] = tested on: human umbilical vein endothelial cell (HUVEC); assay: Cell adhesion to immobilized collagen RGD peptides; format: cell-based; conditions: peptide immobilized 100 μg/ml; FIG. 1A
Experimental: as §1

[3] = tested on: human microvascular endothelial cells (HMVEC); assay: Cell adhesion to immobilized collagen RGD peptides; format: cell-based; conditions: peptide immobilized 100 μg/ml
Experimental: as §1

human dermal fibroblasts = assay: Cell adhesion to immobilized collagen RGD peptides; format: cell-based; conditions: peptide immobilized 100 μg/ml
Experimental: as §1

[4] = tested on: chick chorioallantoic membrane (CAM); assay: Chick CAM angiogenesis induced by soluble RGD collagen peptides; format: in vivo; conditions: soluble peptide; FIG. 5C
Experimental: (§2) The chick chorioallantoic membrane (CAM) assays were carried out with some modifications (19). For all experiments CAMs of 10-day-old chick embryos obtained from Charles River (North Franklin, Conn.) were separated from the shell membrane. Filter discs either non-treated (inflammation assays) pretreated (angiogenesis assays) with cortisone acetate (3.0 mg/ml) containing RPMI only or FGF-2 (40 ng). CAMs were either non-treated or treated topically with Mab XL313, XL166 or a non-specific control antibody (10 μg/embryo every 24 h for three consecutive treatments). […] At the end of the incubation period the embryos were sacrificed and the CAM tissues were analyzed. Angiogenesis was quantified by counting the number of angiogenic branching blood vessels within the area of the filter disc. The angiogenic index was determined by subtracting the mean number of blood vessel branch points from untreated CAMs from each experimental condition. Eight to twelve embryos were used per condition and experiments were repeated at least three times.

[5] = tested on: chick chorioallantoic membrane (CAM); assay: Chick CAM inflammation induced by soluble RGD collagen peptides; format: in vivo; conditions: FIG. 5D
Experimental: as §2

[6] = tested on: chick chorioallantoic membrane (CAM); assay: Chick CAM inflammation assay, FGF-2 induced, no cortisone acetate; format: in vivo
Experimental: The chick chorioallantoic membrane (CAM) assays were carried out with some modifications (19). For all experiments CAMs of 10-day-old chick embryos obtained from Charles River (North Franklin, Conn.) were separated from the shell membrane. Filter discs either non-treated (inflammation assays) pretreated (angiogenesis assays) with cortisone acetate (3.0 mg/ml) containing RPMI only or FGF-2 (40 ng). CAMs were either non-treated or treated topically with Mab XL313, XL166 or a non-specific control antibody (10 μg/embryo every 24 h for three consecutive treatments). For peptide induction experiments, CAMs were stimulated with 100 ng/ml of the RGD peptides (P-1, P-2, P-C) in the presence or absence of the P38MAPK inhibitor, SB202190 (10 μM). At the end of the incubation period the embryos were sacrificed and the CAM tissues were analyzed. Angiogenesis was quantified by counting the number of angiogenic branching blood vessels within the area of the filter disc. The angiogenic index was determined by subtracting the mean number of blood vessel branch points from untreated CAMs from each experimental condition. Eight to twelve embryos were used per condition and experiments were repeated at least three times.
CAMs examined for accumulation of granulation tissue were harvested, fixed in 4% PFA and paraffin embedded and sectioned (4 μm) and stained with Giemsa. CAM tissues analyzed via immunofluorescence were harvested, embedded with OCT, snap frozen and sectioned ([…]). Frozen sections were fixed in 50% methanol/50% acetone, air dried and blocked with 2.5% BSA for 1 h at 37° C. For expression of the XL313 and XL166 epitopes as well as monocyte/macrophages, FGF-2 stimulated CAM tissues were stained with Mabs XL313, XL166 (50 μg/ml) or KUL1 (1:250) and then incubated with Alexa-488 labeled secondary antibodies (1:2000 dilution). […] Using a similar strategy, sections of RGD peptide-treated CAM tissues were analyzed for phosphorylated-P38MAPK in angiogenic vessels by co-incubation of anti-phospho-P38MAPK (1:50) and anti-vWf (1:500) antibodies. […]

XL313 epitope = assay: Circulating Mab XL313 reactive epitope in chick embryo serum (solid-phase ELISA); format: in vivo; conditions: serum collected three days after FGF-2 stimulation; FIG. 5A
Source text: FIG. 5A-FIG. 5D are bar graphs depicting the induction of angiogenesis and inflammation in vivo by soluble RGDKGE (SEQ ID NO: 1) but not a related RGDAPG (SEQ ID NO: 11) containing collagen epitope. FIG. 5A is a bar graph depicting serum from chick embryos in which the CAMs had been either not stimulated (NT) or stimulated with FGF-2 was collected. Relative levels of circulating Mab XL313 reactive epitope were quantified by solid-phase ELISA. Data represent mean Mab XL313 reactivity±S.E (N=12 to 13). FIG. 5B is a bar graph depicting quantification of dose dependent induction of angiogenesis by RGDKGE (SEQ ID NO: 1) containing collagen peptide P-2. […] FIG. 5C is a bar graph depicting quantification of CAM angiogenesis associated with RGD containing collagen peptides P-1 (KGDRGDAPG; SEQ ID NO: 2), P-2 (QGPRGDKGE; SEQ ID NO: 3) or control peptide P-C (QGPSGSPGE; SEQ ID NO: 4). […] FIG. 5D is a bar graph depicting the quantification of CAM inflammation associated with RGD containing collagen peptides P-1 (KGDRGDAPG; SEQ ID NO: 2), P-2 (QGPRGDKGE; SEQ ID NO: 3) or control peptide P-C (QGPSGSPGE (SEQ ID NO: 4)). […]
Due to the differential expression and bio-distribution of the RGDKGE (SEQ ID NO: 1) epitope in angiogenic CAM tissues and its expression in macrophage-conditioned medium, it was determined whether a soluble circulating form of this RGDKGE (SEQ ID NO: 1) epitope could be generated. […]

[7] = target: T1, integrin αvβ3 on cells (HUVEC endothelial cells, M21 melanoma cells, human T-cells) (human, UniProt P06756 31-1048; P05106 27-788); assay: HUVEC adhesion to immobilized peptides with function blocking anti-integrin antibodies
T1 construct: whole, on cells; Endogenous receptor on the cells used in adhesion and signalling assays; also called β3 integrin
T1 sequence (P06756 31-1048, chain 1 of 2): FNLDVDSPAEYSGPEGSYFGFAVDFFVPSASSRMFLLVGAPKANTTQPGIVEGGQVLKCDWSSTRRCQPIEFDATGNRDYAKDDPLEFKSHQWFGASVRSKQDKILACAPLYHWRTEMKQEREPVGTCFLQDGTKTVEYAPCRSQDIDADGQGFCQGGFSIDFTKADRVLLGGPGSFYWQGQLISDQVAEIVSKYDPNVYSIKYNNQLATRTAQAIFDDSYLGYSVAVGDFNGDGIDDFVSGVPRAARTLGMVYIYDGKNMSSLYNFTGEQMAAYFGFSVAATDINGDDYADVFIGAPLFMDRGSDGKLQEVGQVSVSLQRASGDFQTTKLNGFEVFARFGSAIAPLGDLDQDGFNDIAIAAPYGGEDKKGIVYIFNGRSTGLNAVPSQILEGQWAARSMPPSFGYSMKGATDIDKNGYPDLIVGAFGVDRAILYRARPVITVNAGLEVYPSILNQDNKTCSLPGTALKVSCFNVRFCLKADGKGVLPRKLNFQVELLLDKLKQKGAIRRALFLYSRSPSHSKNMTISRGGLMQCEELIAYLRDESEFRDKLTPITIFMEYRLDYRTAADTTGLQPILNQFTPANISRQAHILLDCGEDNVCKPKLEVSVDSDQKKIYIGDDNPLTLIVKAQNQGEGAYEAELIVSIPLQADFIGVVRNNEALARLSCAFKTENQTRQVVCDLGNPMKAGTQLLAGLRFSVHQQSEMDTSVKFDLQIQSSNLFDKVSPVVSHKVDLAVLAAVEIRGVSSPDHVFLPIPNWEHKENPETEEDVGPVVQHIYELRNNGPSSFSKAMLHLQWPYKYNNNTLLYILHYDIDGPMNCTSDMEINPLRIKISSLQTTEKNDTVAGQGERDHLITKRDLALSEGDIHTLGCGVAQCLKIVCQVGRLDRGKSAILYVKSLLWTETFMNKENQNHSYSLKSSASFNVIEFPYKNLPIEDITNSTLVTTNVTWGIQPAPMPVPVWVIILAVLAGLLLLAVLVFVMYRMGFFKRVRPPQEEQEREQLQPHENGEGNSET
T1 sequence (P05106 27-788, chain 2 of 2): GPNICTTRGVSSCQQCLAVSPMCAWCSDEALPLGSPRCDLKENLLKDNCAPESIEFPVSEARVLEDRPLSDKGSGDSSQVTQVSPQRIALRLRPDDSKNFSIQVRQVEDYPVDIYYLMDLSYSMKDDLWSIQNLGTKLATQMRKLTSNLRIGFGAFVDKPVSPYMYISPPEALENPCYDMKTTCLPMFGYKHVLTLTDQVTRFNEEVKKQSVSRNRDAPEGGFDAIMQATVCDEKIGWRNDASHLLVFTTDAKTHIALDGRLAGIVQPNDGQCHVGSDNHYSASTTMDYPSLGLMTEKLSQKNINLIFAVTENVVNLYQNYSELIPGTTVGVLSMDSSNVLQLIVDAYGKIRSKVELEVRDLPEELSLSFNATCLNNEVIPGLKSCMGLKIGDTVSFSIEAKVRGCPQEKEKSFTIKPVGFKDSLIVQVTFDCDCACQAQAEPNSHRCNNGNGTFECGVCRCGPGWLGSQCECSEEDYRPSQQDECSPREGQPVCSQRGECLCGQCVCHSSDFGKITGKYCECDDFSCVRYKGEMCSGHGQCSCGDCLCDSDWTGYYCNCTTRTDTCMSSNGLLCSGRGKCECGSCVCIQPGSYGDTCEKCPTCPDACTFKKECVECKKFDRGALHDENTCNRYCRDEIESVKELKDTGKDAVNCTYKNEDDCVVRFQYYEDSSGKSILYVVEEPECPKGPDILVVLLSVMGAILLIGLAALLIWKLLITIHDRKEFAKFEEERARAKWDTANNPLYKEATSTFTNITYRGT
Experimental: as §1, with “µg/ml)” for “μg/ml)”, “µg/ml).” for “μg/ml).”
Example 8: Collagen Peptide P-2 Binds and Activates αvβ3 and Stimulates P38MAPK Activation in a Src Dependent Manner It is well established that multiple integrins recognize RGD amino acid motifs within ECM proteins. However, the ability of an integrin to bind distinct RGD epitopes depends in part on its orientation within the parent molecule and the C-terminal amino acid sequences flanking the RGD motif (25-27). Potential cell surface receptors that mediate interactions with the RGDKGE (SEQ ID NO: 1) containing collagen P-2 peptide were identified. The ability of endothelial cells to bind the RGD collagen peptides P-1 and P-2 in the presence or absence of function blocking anti-integrin antibodies was examined.

[8] = target: T2, integrin αvβ3 (recombinant) (UniProt P06756 31-992; P05106 27-718); assay: solid-phase binding assay, integrin on immobilized PGF peptide (100 ug/ml)
T2 construct: Bought recombinant integrin; also called recombinant integrin receptor αvβ3
T2 sequence (P06756 31-992 limits assumed, chain 1 of 2): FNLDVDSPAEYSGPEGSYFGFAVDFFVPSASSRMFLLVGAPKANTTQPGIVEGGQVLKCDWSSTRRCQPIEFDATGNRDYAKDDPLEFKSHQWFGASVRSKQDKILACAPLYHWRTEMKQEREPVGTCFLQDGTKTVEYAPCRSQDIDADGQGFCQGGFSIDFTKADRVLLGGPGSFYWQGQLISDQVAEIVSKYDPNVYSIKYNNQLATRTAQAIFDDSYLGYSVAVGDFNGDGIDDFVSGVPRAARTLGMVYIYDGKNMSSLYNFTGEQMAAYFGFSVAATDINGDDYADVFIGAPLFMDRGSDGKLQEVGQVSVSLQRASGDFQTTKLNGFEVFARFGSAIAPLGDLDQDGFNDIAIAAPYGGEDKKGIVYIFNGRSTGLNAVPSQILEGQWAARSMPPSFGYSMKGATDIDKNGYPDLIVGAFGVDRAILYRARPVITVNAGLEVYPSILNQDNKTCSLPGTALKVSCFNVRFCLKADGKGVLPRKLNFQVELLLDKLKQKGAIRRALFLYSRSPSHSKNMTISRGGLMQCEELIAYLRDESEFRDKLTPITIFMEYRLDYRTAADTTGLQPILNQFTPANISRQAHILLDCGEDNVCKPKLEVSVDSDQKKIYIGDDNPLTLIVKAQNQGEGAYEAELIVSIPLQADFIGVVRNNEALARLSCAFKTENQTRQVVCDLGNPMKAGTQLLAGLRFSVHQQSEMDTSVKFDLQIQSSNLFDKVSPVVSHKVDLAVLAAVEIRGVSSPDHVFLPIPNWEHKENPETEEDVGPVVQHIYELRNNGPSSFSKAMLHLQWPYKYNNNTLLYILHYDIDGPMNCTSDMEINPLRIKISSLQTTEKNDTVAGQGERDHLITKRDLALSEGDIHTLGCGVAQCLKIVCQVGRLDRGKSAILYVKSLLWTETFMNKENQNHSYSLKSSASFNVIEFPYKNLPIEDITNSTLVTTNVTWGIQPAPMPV
T2 sequence (P05106 27-718 limits assumed, chain 2 of 2): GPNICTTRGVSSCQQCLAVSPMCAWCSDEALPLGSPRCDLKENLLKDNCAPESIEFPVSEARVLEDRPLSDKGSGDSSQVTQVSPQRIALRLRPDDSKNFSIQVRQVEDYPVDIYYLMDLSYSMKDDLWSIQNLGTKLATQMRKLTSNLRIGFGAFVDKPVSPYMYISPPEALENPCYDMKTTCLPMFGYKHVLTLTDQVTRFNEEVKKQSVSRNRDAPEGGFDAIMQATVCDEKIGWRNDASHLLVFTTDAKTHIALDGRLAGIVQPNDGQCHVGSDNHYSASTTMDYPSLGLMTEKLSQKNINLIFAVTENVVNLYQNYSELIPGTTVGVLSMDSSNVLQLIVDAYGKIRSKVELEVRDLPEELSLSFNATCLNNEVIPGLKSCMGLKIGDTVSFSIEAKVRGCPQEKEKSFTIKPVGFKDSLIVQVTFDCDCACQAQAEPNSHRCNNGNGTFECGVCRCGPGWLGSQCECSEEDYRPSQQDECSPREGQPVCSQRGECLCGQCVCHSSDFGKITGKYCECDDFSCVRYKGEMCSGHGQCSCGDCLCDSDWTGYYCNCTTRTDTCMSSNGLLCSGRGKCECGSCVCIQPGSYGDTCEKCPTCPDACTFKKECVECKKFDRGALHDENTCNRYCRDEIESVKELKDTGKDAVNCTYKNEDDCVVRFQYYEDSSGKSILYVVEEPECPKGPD
Experimental: Plates were coated with 25 µg/ml of native or denatured (boiled 15 minutes) collagen. Collagen epitope peptide PGF and Cont-peptides were immobilized at 100 ug/ml. Integrins (0-2.0 µg/ml) were diluted in binding buffer containing 20 mM Tris, 15 mM NaCl, 1 mM MgCl2, 0.2 mM MnCl2, 0.5% BSA pH 7.4 as described (13). Integrins were allowed to bind for 1 hr and plates washed and incubated with anti-integrin antibodies (1:100 dilution) for 1 hr. Plates were washed and incubated with HRP-labeled secondary antibodies (1:5000 dilution). In a second assay, integrins (0.5 µg/ml) were coated in binding buffer and plates were washed, blocked as before and denatured (boiled 15 minutes) collagen was added (0-10.0 µg/ml). Denatured collagen was detected with anti-collagen antibody (1:1000). For integrin blocking ELISAs, wells were coated with denatured collagen and pre-treated (0.1 µg/ml) with anti-HU177 or control antibody. Following washing, wells were incubated with integrins (2.0 µg/ml) and binding was detected as described. Assays were carried out at least 3 times.

In the case of COc1cccc(-c2cc(=O)c3ccccc3o2)c1N [MEK inhibitor (PD98059), PD98059], the “FGF-2 stimulated fibroblast migration on denatured collagen” value (fibroblasts) is reported as “blocked”.

“CQGPSGAPGEC [P-C, control peptide lacking the RGD tri-peptide motif, reference compound]” was tested, and the “HRMVEC adhesion to immobilized peptide” value [1] was “failed to support interactions”, the “HUVEC adhesion to immobilized peptide” value [2] was “failed to support adhesion” and the “HMVEC adhesion to immobilized peptide” value [3] was “failed to support interactions”. The “human dermal fibroblast adhesion to immobilized peptide” value (human dermal fibroblasts) was “failed to support interactions”, the “induction of CAM angiogenesis as compared to no treatment” value [4] was “not” and the “CAM inflammation following stimulation with peptide” value [5] was “Minimal evidence of tissue inflammation”.

With “FGF-2: Fibroblast growth factor-2 from R&D Systems, used to stimulate CAMs” the “CAMs showing robust formation of thick granulation tissue” value ([6]; FGF-2 stimulation in the absence of cortisone acetate, FIG. 3E) was “approximately 50%”, the “macrophage infiltration of the CAMs, enhancement as compared to control” value ([6]; FGF-2 stimulation without cortisone acetate, FIG. 3D) was “over 2 fold” and the “increase in levels of circulating XL313 epitope” value (XL313 epitope) was 2 fold.

CKGDRGDAPGC [Synthetic collagen RGD containing peptide P-1 (CKGDRGDAPGC)]: binds [7].

CPGFPGFC [Collagen PGF-peptide (CPGFPGFC), synthetic HU177 epitope]: no binding [8].
